Results on 4 compounds are retold here after US20110028518A1, “DEXLANSOPRAZOLE PROCESS AND POLYMORPHS” (DR. REDDY'S LABORATORIES LTD., priority 2008, published 2011).

The nature of series [1]: Bulk density (USP Test 616, method 2). The format is physicochemical. An excerpt: In an embodiment, the present application provides dexlansoprazole having bulk densities less than about 1 g/ml. Bulk density has been determined using Test 616 “Bulk Density and Tapped Density,” in United States Pharmacopoeia 29, United States Pharmacopeial Convention, Inc., Rockville, Md., 2005, in method 2.

Series [2] can be described thus: Particle size distribution. The series is classed as physicochemical. An excerpt: “10th volume percentile” as used herein, unless otherwise defined refers to the size of particles, below which 10% of the measured sample volume lies; “50th volume percentile” as used herein, unless otherwise defined refers to the size of particles, below which 50% of the measured samples volume lies, and “90th volume percentile” as used herein, unless otherwise defined refers to the size of particles, below which 90% of the measured samples volume lies.
Particle size distributions of dexlansoprazole particles may be measured with a Jayant Test Siever (e.g., using mesh number 60, mesh opening 250 μm). Particle size distributions of dexlansoprazole particles may also be measured using light scattering equipment such as a Malvern Master Sizer 2000 (helium neon laser source, dexlansoprazole suspended in light liquid paraffin, size range: 0.02 μm to 2000 μm). Other techniques are also useful.

The nature of series [3]: Storage stability studies (Example 28): water content and HPLC impurities. The format is physicochemical. From the text:
A high performance liquid chromatography (HPLC) method for measuring the chemical purity of dexlansoprazole or a compound of formula (VII) of the present application, and for determination of their corresponding impurities, involves the use of a YMC-PAK ODS-A 100×4.6, 3 μm or equivalent column.
A high performance liquid chromatography (HPLC) method for measuring the impurity at RRT 1.98, and having a mass number of m/z 467, in the present application involves the use of a YMC-PRO C-18 100×4.6 mm, 3 microns or equivalent column.
Dexlansoprazole obtained from Example 23 was tested for its storage stability. The samples were stored in a tied clear polyethylene bag, placed in a black polyethylene bag filled with N2 along with a silica desiccant pouch, and the black bag was placed into a triple laminated bag along with silica gel pouch and then sealed and stored in HDPE drum packaging under the conditions noted in the following results tables. Chemical purity of the samples was measured by HPLC before and after storage.
The following impurities were monitored during stability testing:
2-mercaptobenzimidazole (designated “2-MB) having the following structure;
a “nitrosulphoxide” impurity (designated “NS”) having the following structure;
a “sulfide” impurity, having a chemical name 2-[[{4-(2,2,2-trifluoroethoxy)-3-methylpyridine-2-yl}methyl]thio]-1H-benzimidazole and the following structure;
a “sulfone” impurity, having a chemical name 2-[[{4-(2,2,2-trifluoroethoxy)-3-methylpyridine-2-yl}methyl]sulfonyl]-1H-benzimidazole and the following structure;
and an unidentified impurity at RRT (relative retention time) 1.98. Also given in the following tables are the concentration of the highest unidentified impurity as measured by HPLC, total impurities, and the water content. All results in the tables given below are expressed on a weight percent basis, and “ND” means not detected.

Another series has as its target (H+—K+)-ATPase (Homo sapiens, UniProt P20648). The following applies: Biochemical Pharmacology (1991), 42(10), 1875-8; cited from earlier work.
A short description of series [4]: Specific surface area by the BET method. The format is physicochemical. Here is the method:
The specific surface area of dexlansoprazole of the present application has been measured by a BET (Brunauer, Emmett and Teller) specific surface method using a Micromeritics Gemini surface area analyzer, model 2365. Samples for analysis were degassed at 40° C. under reduced pressure and the determination of the adsorption of nitrogen gas at 77° K was measured for relative pressure in the range of 0.05-0.3.

Setting [5] is: At 25 ± 2° C. and 60 ± 5% Relative Humidity, 1 month.
[6] abbreviates: At 25 ± 2° C. and 60 ± 5% Relative Humidity, 2 months.
Setting [7] is: At 25 ± 2° C. and 60 ± 5% Relative Humidity, 3 months.
[8] abbreviates: At 25 ± 2° C. and 60 ± 5% Relative Humidity, 15 days.
Setting [9] is: At 25 ± 2° C. and 60 ± 5% Relative Humidity, 45 days.
Setting [10] is: At 25 ± 2° C. and 60 ± 5% Relative Humidity, Initial.
The mark [11] stands for this setting: storage at 2-8° C. and at 25 ± 2° C./60 ± 5% RH, up to 3 months.

(H+—K+)-ATPase, sequence (P20648 whole entry): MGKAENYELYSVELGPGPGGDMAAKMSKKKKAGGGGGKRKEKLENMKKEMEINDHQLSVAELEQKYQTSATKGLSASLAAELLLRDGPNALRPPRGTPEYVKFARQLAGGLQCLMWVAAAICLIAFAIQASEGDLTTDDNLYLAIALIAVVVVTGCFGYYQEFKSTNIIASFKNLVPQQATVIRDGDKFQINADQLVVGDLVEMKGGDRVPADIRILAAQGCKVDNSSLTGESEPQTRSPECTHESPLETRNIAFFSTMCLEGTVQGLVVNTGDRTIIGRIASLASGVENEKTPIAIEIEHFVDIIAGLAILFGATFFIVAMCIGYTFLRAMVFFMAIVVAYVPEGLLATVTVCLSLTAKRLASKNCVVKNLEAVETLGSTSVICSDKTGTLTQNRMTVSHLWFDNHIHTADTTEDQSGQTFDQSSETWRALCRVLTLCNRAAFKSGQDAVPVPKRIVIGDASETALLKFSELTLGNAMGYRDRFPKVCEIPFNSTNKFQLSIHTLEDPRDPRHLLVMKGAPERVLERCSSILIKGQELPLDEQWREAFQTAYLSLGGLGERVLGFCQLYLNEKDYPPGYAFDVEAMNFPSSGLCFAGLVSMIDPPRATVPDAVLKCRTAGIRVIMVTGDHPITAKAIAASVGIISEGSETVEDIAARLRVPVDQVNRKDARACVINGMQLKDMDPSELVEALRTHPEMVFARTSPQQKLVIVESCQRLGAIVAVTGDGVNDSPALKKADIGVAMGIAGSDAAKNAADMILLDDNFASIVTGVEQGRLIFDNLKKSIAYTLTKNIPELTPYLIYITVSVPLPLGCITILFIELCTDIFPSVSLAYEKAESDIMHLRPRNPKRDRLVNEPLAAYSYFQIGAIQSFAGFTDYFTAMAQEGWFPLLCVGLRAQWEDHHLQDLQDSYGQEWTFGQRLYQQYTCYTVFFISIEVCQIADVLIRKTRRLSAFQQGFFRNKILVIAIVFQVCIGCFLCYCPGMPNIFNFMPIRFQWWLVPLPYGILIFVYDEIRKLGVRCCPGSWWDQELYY
(H+—K+)-ATPase, sequence (P51164 whole entry partner): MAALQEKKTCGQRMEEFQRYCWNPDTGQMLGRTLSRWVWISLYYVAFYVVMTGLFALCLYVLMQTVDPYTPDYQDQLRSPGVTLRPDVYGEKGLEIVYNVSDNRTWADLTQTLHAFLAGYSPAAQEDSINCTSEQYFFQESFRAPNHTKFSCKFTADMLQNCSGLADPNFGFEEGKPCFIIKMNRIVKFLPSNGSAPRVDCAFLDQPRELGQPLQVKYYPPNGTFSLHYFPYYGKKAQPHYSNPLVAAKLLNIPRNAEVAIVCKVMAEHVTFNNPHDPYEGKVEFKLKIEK

In turn, `Cc1c(OCC(F)(F)F)ccnc1C[S@@+]([O-])c1nc2ccccc2[nH]1` [Example 24, dexlansoprazole] came in with a Bulk density in series [1] (after tapping) of 0.65 g/mL. The same compound showed a Bulk density in series [1] (before tapping) of 0.47 g/mL. In addition, in series [2], the “Particle size distribution d(0.1)” value amounted to 0.896 μm, the “Particle size distribution d(0.5)” value is 5.308 μm and the “Particle size distribution d(0.9)” value is 12.938.

`Cc1c(OCC(F)(F)F)ccnc1C[S@@+]([O-])c1nc2ccccc2[nH]1` [Example 23, dexlansoprazole]: the 2-MB in series [3] (At 2-8° C., 1 month) was found to be 0.04 weight percent; in series [3] (At 2-8° C., 2 months), 0.03 weight percent; in series [3] (At 2-8° C., 3 months) it was 0.02 weight percent; in series [3] (At 2-8° C., Initial), 0.02 weight percent; in series [3] (setting [5]) it was 0.05 weight percent; in series [3] (setting [6]), 0.04 weight percent. Also, the 2-MB in series [3] (setting [7]) amounted to 0.04 weight percent; in series [3] (setting [8]), 0.03 weight percent; in series [3] (setting [9]), 0.04 weight percent; in series [3] (setting [10]) it was 0.02 weight percent. Besides, the “Highest Impurity” value in series [3] (At 2-8° C., 1 month) is 0.07 weight percent; in series [3] (At 2-8° C., 2 months) it was 0.07 weight percent; in series [3] (At 2-8° C., 3 months) it was 0.07 weight percent; in series [3] (At 2-8° C., Initial), 0.07 weight percent; in series [3] (setting [5]), 0.09 weight percent; in series [3] (setting [6]), 0.07 weight percent. In addition, the “Highest Impurity” value in series [3] (setting [7]) worked out at 0.07 weight percent; in series [3] (setting [8]), 0.08 weight percent; in series [3] (setting [9]) it was 0.06 weight percent; in series [3] (setting [10]), 0.07 weight percent. The “RRT 1.98” value in series [3] (At 2-8° C., 1 month) is reported as 0.06 weight percent; in series [3] (At 2-8° C., 2 months), 0.06 weight percent; in series [3] (At 2-8° C., 3 months) it was 0.06 weight percent; in series [3] (At 2-8° C., Initial) it was 0.03 weight percent; in series [3] (setting [5]), 0.14 weight percent; in series [3] (setting [6]) it was 0.15 weight percent. Further, the “RRT 1.98” value in series [3] (setting [7]) is 0.17 weight percent; in series [3] (setting [8]), 0.09 weight percent; in series [3] (setting [9]) it was 0.14 weight percent; in series [3] (setting [10]) it was 0.03 weight percent. The Sulfide in series [3] (At 2-8° C., 1 month) is 0.45 weight percent; in series [3] (At 2-8° C., 2 months), 0.50 weight percent; in series [3] (At 2-8° C., 3 months), 0.48 weight percent; in series [3] (At 2-8° C., Initial), 0.47 weight percent; in series [3] (setting [5]), 0.47 weight percent; in series [3] (setting [6]) it was 0.50 weight percent. In addition, the Sulfide in series [3] (setting [7]) was 0.50 weight percent; in series [3] (setting [8]) it was 0.50 weight percent; in series [3] (setting [9]), 0.52 weight percent; in series [3] (setting [10]) it was 0.47 weight percent. In addition, the Sulfone in series [3] (At 2-8° C., 1 month) came out at 0.57 weight percent; in series [3] (At 2-8° C., 2 months) it was 0.61 weight percent; in series [3] (At 2-8° C., 3 months) it was 0.59 weight percent; in series [3] (At 2-8° C., Initial), 0.59 weight percent; in series [3] (setting [5]) it was 0.55 weight percent; in series [3] (setting [6]) it was 0.61 weight percent. Besides, the Sulfone in series [3] (setting [7]) was 0.61 weight percent; in series [3] (setting [8]), 0.61 weight percent; in series [3] (setting [9]), 0.64 weight percent; in series [3] (setting [10]), 0.59 weight percent. For the same compound, the Total impurities in series [3] (At 2-8° C., 1 month) was 1.54 weight percent; in series [3] (At 2-8° C., 2 months) it was 1.76 weight percent; in series [3] (At 2-8° C., 3 months) it was 1.63 weight percent; in series [3] (At 2-8° C., Initial), 1.42 weight percent; in series [3] (setting [5]) it was 1.80 weight percent; in series [3] (setting [6]) it was 1.99 weight percent. Moreover, the Total impurities came to 1.89 weight percent in series [3] (setting [7]), 1.76 weight percent in series [3] (setting [8]), 1.93 weight percent in series [3] (setting [9]) and 1.42 weight percent in series [3] (setting [10]). Further, the Water in series [3] (At 2-8° C., 1 month) is 3.54 weight percent; in series [3] (At 2-8° C., 2 months) it was 2.61 weight percent; in series [3] (At 2-8° C., 3 months) it was 2.24 weight percent; in series [3] (At 2-8° C., Initial), 2.90 weight percent; in series [3] (setting [5]) it was 2.89 weight percent; in series [3] (setting [6]), 1.54 weight percent. Also, the Water in series [3] (setting [7]) was 1.50 weight percent; in series [3] (setting [8]), 1.68 weight percent; in series [3] (setting [9]), 1.29 weight percent; in series [3] (setting [10]), 2.90 weight percent. In addition, in series [3] (setting [11]), the “Appearance during stability testing” value is given as “maintained their initial cream color powder form”. The “Physical form during stability testing” value in series [3] (setting [11]) is recorded as “remained in an amorphous form”.

For the compound `Cc1c(OCC(F)(F)F)ccnc1C[S@@+]([O-])c1nc2ccccc2[nH]1` [Dexlansoprazole, (R)-2-[[[3-methyl-4-(2,2,2-trifluoroethoxy)-2-pyridinyl]methyl]sulfinyl]-1H-benzimidazole], the “antisecretory activity due to the inhibition of (H+—K+)-ATPase” value at (H+—K+)-ATPase was “antisecretory activity”.

With `Cc1c(OCC(F)(F)F)ccnc1C[S@@+]([O-])c1nc2ccccc2[nH]1` [Example 25, dexlansoprazole], in series [4], the “specific surface area by the BET method” value was 1.0608 m^2/g.
